Experimental data published in patent US20240317762A1, “PHTHALAZINONE-BASED PARP-1 INHIBITORS” (Oregon Health & Science University, priority 2021, published 2024).
pEC50, pIC50: −log10 of the molar value. One block for each compound: values may come before it.

Assays:
[1] = tested on: pan-nuclear γH2AX in HEK 293T cells; test: γH2AX immunofluorescence; assay type: cell-based, human; conditions: for reduction of AZ0108-induced pan-nuclear γH2AX / increase of AZ0108-induced pan-nuclear γH2AX: kinase inhibitor co-treated with AZ0108
Description: HEK 293T or HEK 293 PARP-1 KO cells were seeded onto poly-d-lysine treated glass coverslips and treated with indicated concentrations of inhibitors for 18 hours. Cells were then washed with 1×PBS and fixed using 4% Sucrose/4% Paraformaldehyde in PBS for 20 minutes. After three washes in 1×PBS, cells were permeabilized in 0.3% Triton X-100 in PBS for 5 minutes followed by an additional three washes in 1×PBS. Coverslips were blocked in 3% BSA/0.1% Triton X-100 in PBS for 1 hour and then placed in primary anti-rabbit phosphoH2Ax antibody (1:200, Cell Signaling) overnight at 4° C. The next morning, cells were washed three times in 1×PBS and treated with blocking solution, 3% BSA/0.1% Triton X-100 in PBS, for 30 minutes before being placed in secondary anti-rabbit Alexa Fluor 647 (1:1000 Jackson Immuno) for 1 hour at RT. After three subsequent 1×PBS washes, coverslips were mounted using ProLong Gold antifade reagent with DAPI (Invitrogen). All immunofluorescence images were taken on a Zeiss ApoTome2 on Axiolmager and analyzed using Zeiss software. Mean intensity of the Alexa Fluor 647 signal was measured after imposing DAPI masks over the nucleus of each cell. All cells within a 20× image, was analyzed (˜3000 cells/condition).
Cell are stained for DAPI and γH2AX. Scale bar indicates 50 μm. FIG. 2B) Quantification of panel a. […] Error bars represent SEM. […] Error bars represent SEM. […] Error bars represent SEM.

[2] = tested on: Ewing sarcoma cell line EW-8; test: ES-8 viability screen (CellTiter-Glo); assay type: cell-based; conditions: for Fold Difference to Pip6: ratio of EC50 values; for pEC50: viability, 72 h
Description: Cell viability was measured using the CellTiter-Glo (Promega, G7573) assay and read using an Envision (PerkinElmer) plate reader. Compound source plates (96-well) were prepared by solubilizing each drug in DMSO to a maximum concentration of 1-50 mM, then arraying samples in 10-point dose-response with 3-fold dilution. Positive and negative controls (staurosporine at 10 mM and DMSO, respectively) were added to the source plates. Drug was transferred from the source plate to the assay plate using a Biomek FX (Beckman Coulter) liquid handler equipped with a pin tool which transferred ˜100 nl into a final volume of 100 μl, resulting in ˜1000-fold dilution. At least two biological replicates (assay performed on different day with same drug plate and independent cell preparation) were obtained for each drug. To analyze the assay, the relative light unit signal in each well was first log 2 transformed, then normalized by subtracting the mean of the negative controls wells on each plate.
FIGS. 6A-6E. […] 0.1 μM ad-olaparib (chemical structure indicated in panel a) was added to the cells for 1 hour before undergoing a UV treatment for 5 minutes in cold PBS. Cells were lysed and sonicated in PBS (1% Triton X-100+1% SDS), clicked with TAMRA-azide and run out on SDS-PAGE. The gel was imaged for TAMRA and probed for PARP-1 (Bethyl Laboratories), and alpha-tubulin (X). FIGS. 6B, 6D) Quantification of western blot images. TAMRA or ADPr values are normalized to PARP-1 within each replicate and plotted as percentage compared to DMSO. Error bars indicate SEM (n=3-4). Statistical significance of off-rate calculated via multiple t-tests (p<0.05). […] Cells were subsequently treated with PARGi (10 μM) for 30 minutes, lysed using RIPA buffer, run out on SDS-PAGE, and probed for ADPr (Cell Signaling) and PARP-1 (Bethyl Laboratories). FIG. 6E) ES-8 cells were treated with indicated concentration of inhibitors for 72 hours before measuring cell viability using the CellTiter-Glo kit (Promega G7573). IC50 values were calculated using R statistical software.

HEK 293T cells [3] = test: analysis of cell cycle (DAPI, flow cytometry); conditions: for G1 / G2 / S: DAPI intensity, 18 hours
Description: After the indicated treatments, cells were washed twice with 1× PBS, trypsinized off of the plate, and washed an additional 2 times with 1×PBS. Cells were then permeabilized using 70% cold ethanol while vortexing before incubating for 30 min at 4° C. Cells were then washed three times with 1×PBS and counted using a hemocytometer to create a final pellet of 1×10^6 cells in for each inhibitor condition. 500 μl of DAPI solution (1 μg/ml DAPI, 0.1% Triton X-100 in PBS) was added to each cell pellet and incubated on ice for 30 min before being analyzed by flow cytometry using a BD Canto II. All data was analyzed on FlowJo software, gating for 20,000 singlet events. Manual cell cycle gates were set onto the DMSO control data using Watson modeling as reference. These gates were applied to all treatment conditions to obtain quantitative analysis.
Error bars represent SEM. […] Caspase-Glo 3/7 reagent was added to each well and luminescence was read after 30 minutes. […] Error bars represent SEM. […] Cell cycle was analyzed by flow cytometry (20,000 singlet events) and cell cycle statistics were calculated in FlowJo software against DMSO Watson modeling (n=3). FIG. 3F) DNA synthesis was measured using EdU incorporation. […] EdU incorporation was labelled using TAMRA azide click-chemistry and imaged at 20×. Mean intensity of TAMRA signal within DAPI masks analyzed using Zen software (n>3900 cells over 2 replicates). Values are normalized to the average DMSO control within each replicate. Error bars represent SEM. Statistical significance calculated via one-way ANOVA with Tukey's multiple comparisons test (p<0.05).

[4] = tested on: caspase-3/7 activity in HEK 293 cells; test: cell apoptosis assay (Caspase-Glo 3/7); assay type: cell-based, human; conditions: 1 μM, 72 hours
Description: HEK 293 or HEK 293 PARP-1 KO cells were seeded in a 96 well plate at 1000-2000 cells per well, a media only “blank” was also included. Following an overnight incubation, cells were treated with 1 μM of indicated inhibitors. “Blank” wells were treated with DMSO. Following a 72 hour inhibitor treatment, the Caspase-Glo 3/7 Assay was completed following the manufacturer instructions (Promega, #G8091). Luminescence was read on a SpectraMax i3 plate reader (Molecular Devices).
(§1) Error bars represent SEM. […] Error bars represent SEM. […] Error bars represent SEM.

HEK 293T cells [5] = test: cell proliferation (MTT) assay; assay type: cell-based, human; conditions: MTT, 72 h; for pEC50: Homo sapiens, HEK-293T, read-out: EC50 cell growth
Description: HEK 293T or HEK 293 PARP-1 KO cells were seeded in a 96 well plate at 1000-2000 cells per well. Following an overnight incubation, MTT reagent, 3-(4,5-dimethylthiazol-2-yl)-2,5-diphenyltetrazolium bromide, or a dosage curve of indicated inhibitor was added to each well in quadruplicate. Following a 3-hour incubation at 37° C., wells containing MTT reagent, were aspirated and lysed with 100 μl DMSO. These wells acting as a no growth control were collected, saved @ −20° C., and replaced with 100 μl water. The plate was placed back into the incubator for a total of 72 hours of inhibitor treatment prior to MTT reagent being added for a final time. Following a 3 hour incubation with the reagent, wells were aspirated, and 100 μl DMSO were added to each well, while the no growth control sample was added back to the plate. Absorbance was read on a SpectraMaxi3 plate reader (Molecular Devices). Percent growth was calculated for analysis. Statistical significance was assigned using individual t-tests between conditions for each inhibitor dosage.
as §1

PARP-1 [6] = target: T1, PARP-1 (Homo sapiens, UniProt P09874); test: in vitro fluorescence polarization DNA competition assay; conditions: 25 μM compound; PARP-1 40 nM; nicked dumbbell DNA probe 20 nM
Description: The full-length WT PARP-1 protein used in these assays was purified as described previously (30).
An unlabeled competitor was added and the decrease in fluorescence polarization was measured across time.

PARP-1 [7] = target: T1, PARP-1; test: in vitro PARP-1 auto-PARylation assay (SRPK2 plate assay); assay type: biochemical; set-up: The full-length WT PARP-1 protein used in these assays; made in house; conditions: read-out: IC50 against PARP-1 catalytic activity (auto-PARylation)
Description: IC50 SRPK2 Plate Assays were performed as previously described (21). Log(inhibitor) versus response curves were fit using non-linear regression with variable slope. Mean IC50 values for each compound were derived from a minimum of three separate replicates.

[8] = tested on: Ser345 phosphorylation of Chk1 in HEK 293 cells; test: western blot analysis of phosphorylation of Chk1; conditions: co-treatment with AZ0108
[9] = tested on: PARP-1 (full-length WT) (Homo sapiens); test: FP; conditions: 5 uM AZ0108 increased affinity 4-fold over no inhibitor; olaparib only modest effect

T1 sequence (P09874 whole entry): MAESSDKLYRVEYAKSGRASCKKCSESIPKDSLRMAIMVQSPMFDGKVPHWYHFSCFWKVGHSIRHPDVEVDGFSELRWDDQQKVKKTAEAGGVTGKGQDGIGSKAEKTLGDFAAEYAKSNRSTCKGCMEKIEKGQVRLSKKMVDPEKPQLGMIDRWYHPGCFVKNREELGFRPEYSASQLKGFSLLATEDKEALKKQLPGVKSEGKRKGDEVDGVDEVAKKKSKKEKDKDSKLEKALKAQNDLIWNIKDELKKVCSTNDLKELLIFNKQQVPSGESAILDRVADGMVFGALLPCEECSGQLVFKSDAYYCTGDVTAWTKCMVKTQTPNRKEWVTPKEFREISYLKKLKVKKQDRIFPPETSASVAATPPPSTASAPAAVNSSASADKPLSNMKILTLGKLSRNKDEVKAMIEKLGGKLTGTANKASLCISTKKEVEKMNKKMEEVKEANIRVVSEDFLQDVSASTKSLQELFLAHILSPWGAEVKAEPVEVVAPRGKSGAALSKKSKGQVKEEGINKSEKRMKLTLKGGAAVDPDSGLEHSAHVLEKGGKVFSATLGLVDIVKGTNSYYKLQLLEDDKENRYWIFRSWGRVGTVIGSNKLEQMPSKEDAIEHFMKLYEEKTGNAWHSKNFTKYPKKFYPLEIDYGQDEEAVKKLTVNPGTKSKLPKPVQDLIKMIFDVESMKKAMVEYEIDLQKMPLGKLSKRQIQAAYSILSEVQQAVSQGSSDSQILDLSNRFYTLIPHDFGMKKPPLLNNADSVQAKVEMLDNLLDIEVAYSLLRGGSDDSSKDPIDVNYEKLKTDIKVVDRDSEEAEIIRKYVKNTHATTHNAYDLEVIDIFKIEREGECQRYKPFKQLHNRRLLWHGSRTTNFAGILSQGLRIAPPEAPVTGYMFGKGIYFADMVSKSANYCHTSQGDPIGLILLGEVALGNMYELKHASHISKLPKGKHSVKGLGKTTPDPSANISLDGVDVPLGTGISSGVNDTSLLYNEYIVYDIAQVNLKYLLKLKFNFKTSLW

Compound: O=c1cc(-c2cccc3c2Sc2ccccc2S3)oc(N2CCOCC2)c1 [KU-55933]
reduction of AZ0108-induced pan-nuclear γH2AX [1]: ~2 fold

Compound: O=c1cc(N2CCOCC2)oc2c(-c3cccc4c3sc3ccccc34)cccc12 [NU7441]
increase of AZ0108-induced pan-nuclear γH2AX [1]: ~1.3 fold

pEC50 [2]: 5.86
Compound: NC(=O)c1cccc2cn(-c3ccc([C@@H]4CCCNC4)cc3)nc12 [Niraparib]
Fold Difference to Pip6 [2]: 5693

Compound: O=C(c1cc(Cc2n[nH]c(=O)c3ccccc23)ccc1F)N1CCN(C(=O)C2CC2)CC1 [Olaparib]
pan-nuclear γH2AX induction ([1]; HEK 293T cells, 18 hours): did not induce either pan-nuclear γH2AX or γH2AX foci | effect of co-treatment on AZ0108-induced pan-nuclear γH2AX ([1]; co-treatment with AZ0108): reversed the effects of AZ0108 on pan-nuclear γH2AX | G1 (HEK 293T cells [3]): 19.4% | G2 (HEK 293T cells [3]): 9.50% | S (HEK 293T cells [3]): 54.0% | effect on cell cycle (HEK 293T cells [3]; FACS, DAPI fluorescence): did not alter the cell cycle | reduction of caspase-3/7 activity [4]: did not significantly affect | pEC50 (HEK 293T cells [5]): ~5.00

exchange of the PARP-1:labled DNA complex with an unlabeled DNA competitor (PARP-1 [6]): very little impact | pIC50 (PARP-1 [7]): 8.41
Compound: O=C(c1cc(Cc2n[nH]c(=O)c3ccccc23)ccc1F)N1CCn2cnnc2C1 [Pip1, 4-(4-Fluoro-3-(5,6,7,8-tetrahydro-[1,2,4]triazolo[4,3-a]pyrazine-7-carbonyl)benzyl)phthalazin-1(2H)-one]
pEC50 (HEK 293T cells [5]): ~5.22

exchange of the PARP-1:labled DNA complex with an unlabeled DNA competitor (PARP-1 [6]): very little impact
Compound: Cc1nnc2n1CCN(C(=O)c1cc(Cc3n[nH]c(=O)c4ccccc34)ccc1F)C2 [Pip2, 4-(4-Fluoro-3-(3-methyl-5,6,7,8-tetrahydro-[1,2,4]triazolo[4,3-a]pyrazine-7-carbonyl)benzyl) phthalazin-1(2H)-one]

Compound: O=C(c1cc(Cc2n[nH]c(=O)c3ccccc23)ccc1F)N1CCn2c(nnc2C(F)(F)F)C1 [Pip3, 4-(4-Fluoro-3-(3-(trifluoromethyl)-5,6,7,8-tetrahydro-[1,2,4]triazolo[4,3-a]pyrazine-7-carbonyl)benzyl) phthalazin-1(2H)-one]
potency in inhibiting cell growth compared with AZ0108 (HEK 293T cells [5]): substantially more potent than AZ0108

pIC50 (PARP-1 [7]): 7.76
Compound: CC(C)c1nnc2n1CCN(C(=O)c1cc(Cc3n[nH]c(=O)c4ccccc34)ccc1F)C2 [Pip4, 4-(4-Fluoro-3-(3-isopropyl-5,6,7,8-tetrahydro-[1,2,4]triazolo[4,3-a]pyrazine-7-carbonyl)benzyl) phthalazin-1(2H)-one]

Compound: CC(F)(F)c1nnc2n1CCN(C(=O)c1cc(Cc3n[nH]c(=O)c4ccccc34)ccc1F)C2 [Pip5, 4-(4-Fluoro-3-(3-(1,1-difluoroethyl)-5,6,7,8-tetrahydro-[1,2,4]triazolo[4,3-a]pyrazine-7-carbonyl)benzyl)phthalazin-1(2H)-one]
potency in inhibiting cell growth compared with AZ0108 (HEK 293T cells [5]): substantially more potent than AZ0108

pEC50 [2]: 5.25
Compound: CNCc1ccc(-c2[nH]c3cc(F)cc4c3c2CCNC4=O)cc1 [Rucaparib]
Fold Difference to Pip6 [2]: 22998

pEC50 [2]: 9.12
Compound: CCc1c2c(nc3ccc(O)cc13)-c1cc3c(c(=O)n1C2)COC(=O)[C@]3(O)CC [SN-38]
Fold Difference to Pip6 [2]: ~3

Compound: Oc1c2ccccc2c2c3c(cccc13)N=N2 [SP600125]
reduction of AZ0108-induced pan-nuclear γH2AX [1]: ~2 fold

pEC50 [2]: 7.85
Compound: Cn1ncnc1[C@H]1c2n[nH]c(=O)c3cc(F)cc(c23)N[C@@H]1c1ccc(F)cc1 [Talazoparib]
Fold Difference to Pip6 [2]: 59

Compound: Cc1cn([C@H]2C[C@H](O)[C@@H](CO)O2)c(=O)[nH]c1=O [Thymidine]
G1 (HEK 293T cells [3]): 2.79% | G2 (HEK 293T cells [3]): 7.06% | S (HEK 293T cells [3]): 76.3%

Compound: CS(=O)(=O)c1ccc(-c2cnc(N)c(C(=O)Nc3ccccc3)n2)cc1 [VE-821]
increase of AZ0108-induced pan-nuclear γH2AX [1]: ~1.3 fold | effect on AZ0108-induced Ser345 phosphorylation of Chk1 [8]: significantly inhibited

pEC50 [2]: 4.23
Compound: C[C@]1(c2nc3c(C(N)=O)cccc3[nH]2)CCCN1 [Veliparib]
Fold Difference to Pip6 [2]: 245827

Compound: dumbbell DNA probe with central nick
binding signal [9]: 4 fold
